Experimental data: patent US12496298B2, “Natural killer cells” (Imperial College Innovations Limited, priority 2017, dated 2025)

System: Human CD34+ cells
Assay: In vitro development of human NK cells (hCD56+ hCD45+) from CD34+ umbilical cord blood progenitor cells
Assay type: cell-based
Experimental: FIG. 9: Human CD34^+ cells were cultured with the addition of 5 μM SR8278 at Day 4. At Day 14 and 16, percentage of hCD56^+ hCD45^+ (markers for human NK cells) cells was quantified using flow cytometry. (A) Graph showing percentage of hCD56^+ hCD45^+ cells compared to the ‘No drug’ control in different conditions. (B) Flow cytometry gating strategy for identification of human NK cells. (C) Representative flow cytometry results with percentage of NK cells shown. Results were averaged from one experiments with six repeats each and the error bars represent the mean+SD.
The hypothesis that SR8278 increases NK cells production would not have any potential therapeutic value if it was not also true for human NK cell production. Therefore, the effect of SR8278 on human NK cell production from human HPCs was examined. Human HPCs were obtained as the CD34^+ population purified from umbilical cord blood from collaborators at the Anthony Nolan Research Institute, London. Human NK cell development goes through a similar developmental pathway to mouse NK cell development. By contrast with mouse HPC culture, human CD34^+ cells were cultured straight onto EL08-1D2 stromal cells in the presence of IL-3, IL-7, FIt3L, SCF and IL-15 cytokines for 14 and 16 days before harvesting and analysis by flow cytometry. To try to optimise human NK cell production, 5 or 10 μM SR8278 were added on either day 2, 4 or 6 of the culture.
OP9-GFP stromal cells were cultured in Iscove's Modified Dulbecco's Media (IMDM) (Sigma Aldrich) supplemented with 20% Fetal Bovine Serum (FBS), and Penicillin/[…] (P/S). For experiments done on 96-well plates, OP9 stromal cells were plated at the concentration of 2000 cells/well and incubated at 37° C., 5% CO2 for 1 day before the addition of HPCs. For experiments done on 24-well plates, OP9 stromal cells were plated at the concentration of 4000 cells/well and were incubated at 37° C. 5% CO2 for 2 days prior to addition of HPCs. EL08.1D2 stromal cells were cultured in Minimum Essential Medium Eagle—Alpha Modification (Alpha-MEM) supplemented with 50% Myelocult M5300 (Stem Cell Technologies), 7.5% FBS, 50 μM β-Mercaptoethanol, 1 μM Hydrocortisone and 1% P/S (Sigma Aldrich). For human CD34^+ progenitor cell experiments, EL08.1D2 were irradiated at 3000 rads/30 Gy and plated in 96-well EmbryoMax Gelatin (Millipore)-coated plates at the concentration of 20,000 cells/well. There were cultured at 32° C., 5% CO2 overnight, before CD34^+ cells were transferred onto them.
CD34^+ umbilical cord blood progenitor cells were provided by Anthony Nolan Research Institute, University College London. These cells were isolated from whole cord blood and were cryopreserved in liquid nitrogen for storage and transport. Cells were thawed, counted and then plated on EL08.1D2 plates prepared previously at a concentration of 1000 cells/well in human NK cells differentiation medium (Alpha-MEM plus 20% Human AB serum (Invitrogen), 50 μM β-Mercaptoethanol and 1% P/S along with 5 ng/ml human-IL-3 (Peprotech), 20 ng/ml human-IL-7 (Peprotech), 10 ng/ml human-Flt3-L (Peprotech), 20 ng/ml human-SCF (Peprotech) and 10 ng/ml human-IL-15 (Peprotech). Note that human-IL-3 is only needed for the first week of culture. Cells were left in the culture at 37° C., 5% CO2 for 14 or 16 days with a change of human NK differentiation medium at day 7 and 12.
Cells to be analysed by flow cytometry were passed through 40 μm cell strainers to remove clumps and washed with PBS buffer, centrifuged at 800 g for 2 minutes and resuspended in 100 μl fluorescent activated cell sorting (FACS) buffer (PBS plus 1% BSA) with appropriate fluorochrome conjugated antibodies at a dilution of 1 in 300. […]

CCOC(=O)C1Cc2ccccc2CN1C(=O)c1ccc(SC)s1 (stereo not drawn) [SR8278, 1,2,3,4-Tetrahydro-2-[[5-(methylthio)-2-thienyl]carbonyl]-3-isoquinolinecarboxylic acid ethyl ester]
change of percentage of NK cells versus 'No drug' control (5 μM added at Day 4, harvested at Day 14): almost tripled | percentage of NK cells (5 μM added at Day 4, harvested at Day 14, 'No drug' control 5.53%): 13.7% | change of percentage of NK cells versus 'No drug' control (5 μM added at Day 4, harvested at Day 16): doubled | percentage of NK cells (5 μM added at Day 4, harvested at Day 16, 'No drug' control 21.8%): 44.3% | NK cell number (5 μM added on Day 2): clear increase | human NK cell development from human HPCs cultured in vitro (summary in Discussion): significantly increase
